Data published in patent US7807678B2, “Peptidomimetics of biologically active metallopeptides” (Palatin Technologies, Inc., priority 2001, dated 2010).
Like-named read-outs stand apart in the source and are kept apart here. Non-standard residues stand in square brackets, D forms with d. Residues, ends and D or L forms follow the SMILES beside them. *: point of attachment. Hyp = O=C(O)[CH]1C[CH](O)CN1; Nle = CCCC[CH](N)C(=O)O; NH(CH2)3NH2 = NCCCN*; Bn = c1ccc(C*)cc1

Assays:
[1] = target: T1, MC1-R (B-16 mouse melanoma cells) (Mus musculus, UniProt Q01727); assay: Competitive inhibition binding assay, 125I-NDP-α-MSH, MC1-R; conditions: for Inhibition at 1 μM MC1-R: 1 μM compound, inhibition of 125I-NDP-α-MSH binding, mean of triplicates, results less than 0% reported as 0%
T1 construct: B-16 mouse melanoma cells (containing MC1-R); endogenous in cells; host or cells: B-16 mouse melanoma cells
Summary of the method: (§1)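 Membranes from hMC3-R, hMC4-R or hMC5-R cells, or B-16 mouse melanoma cells (MC1-R), were incubated 90 min at room temperature with 0.4 nM 125I-NDP-α-MSH in HEPES pH 7.2 with Mg2+/Ca2+/K+, and test compound generally at 1 μM. Filter-bound radioactivity was gamma counted. Specific binding was defined with 1 μM α-MSH; triplicate means.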

[2] = target: T1, MC1-R (B-16 mouse melanoma cells); assay: Ki determination by the method of Example 4, MC1-R; type: binding
Description: (§2) The Ki (nM) of certain peptidomimetics were determined, as was the agonist/antagonist status with respect to MC4-R, Functional evaluation of compounds at melanocortin receptors was performed by measuring the accumulation of intracellular cAMP in HEK-293 cells expressing MC3-R, MC4-R or MC5-R, and in B-16 mouse melanoma cells (containing MC1-R). Antagonistic activity was determined by measuring the inhibition of α-MSH-induced cAMP levels following exposure to the compounds. Cells, suspended in Earle's Balanced Salt Solution containing 10 mM HEPES, pH 7.5, 5 mM MgCl2, 1 mM glutamine, 0.1% albumin and 0.6 mM 3-isobutyl-1-methyl-xanthine, a phosphodiesterase inhibitor, were plated in 96 well plates at a density of 0.5×10^5 cells per well. Cells were incubated with the test compounds in the presence or absence of α-MSH for 1 hour at 37° C. cAMP levels were measured by EIA (Amersham) in the cell lysates. Data analysis and EC50 values were determined using nonlinear regression analysis with Prism Graph-Pad software.

[3] = target: T2, MC3-R (Homo sapiens, UniProt P41968); assay: Competitive inhibition binding assay, 125I-NDP-α-MSH, MC3-R; design: expressed in transfected cells; conditions: for Inhibition at 1 μM MC3-R: 1 μM compound, inhibition of 125I-NDP-α-MSH binding, mean of triplicates, results less than 0% reported as 0%
Summary of the method: as §1

[4] = target: T3, MC4-R (Homo sapiens, UniProt P32245); assay: Competitive inhibition binding assay, 125I-NDP-α-MSH, MC4-R; design: expressed in transfected cells; conditions: for Inhibition at 1 μM MC4-R: 1 μM compound, inhibition of 125I-NDP-α-MSH binding, mean of triplicates, results less than 0% reported as 0%
Summary of the method: as §1

[5] = target: T4, MC5-R (Homo sapiens, UniProt P33032); assay: Competitive inhibition binding assay, 125I-NDP-α-MSH, MC5-R; design: expressed in transfected cells; conditions: for Inhibition at 1 μM MC5-R: 1 μM compound, inhibition of 125I-NDP-α-MSH binding, mean of triplicates, results less than 0% reported as 0%
Summary of the method: as §1

[6] = target: T2, MC3-R; assay: Ki determination by the method of Example 4, MC3-R; type: binding; design: expressed in transfected cells; host or cells: HEK-293
Description: as §2

[7] = target: T3, MC4-R; assay: Ki determination by the method of Example 4, MC4-R; type: binding; design: expressed in transfected cells; host or cells: HEK-293
Description: as §2

[8] = target: T4, MC5-R; assay: Ki determination by the method of Example 4, MC5-R; type: binding; design: expressed in transfected cells; host or cells: HEK-293
Description: as §2

[9] = target: T1, MC1-R (B-16 mouse melanoma cells); assay: cAMP assay for agonist/antagonist status, MC1-R; type: cell-based
Description: as §2

[10] = target: T5, MC4-R (HEK-293 cells) (Homo sapiens, UniProt P32245); assay: cAMP assay for agonist/antagonist status, MC4-R; type: cell-based
T5 construct: expressed in transfected cells; host or cells: HEK-293
Description: as §2

[11] = target: T6, MC5-R (HEK-293 cells) (Homo sapiens, UniProt P33032); assay: cAMP assay for agonist/antagonist status, MC5-R; type: cell-based
T6 construct: expressed in transfected cells; host or cells: HEK-293
Description: as §2

[12] = bound in μM, read-out: Ki MC3-R
[13] = bound in μM, read-out: Ki MC4-R
[14] = bound in μM, read-out: Ki MC5-R
[15] = bound in μM, read-out: Ki MC1-R

T2 sequence (P41968 whole entry): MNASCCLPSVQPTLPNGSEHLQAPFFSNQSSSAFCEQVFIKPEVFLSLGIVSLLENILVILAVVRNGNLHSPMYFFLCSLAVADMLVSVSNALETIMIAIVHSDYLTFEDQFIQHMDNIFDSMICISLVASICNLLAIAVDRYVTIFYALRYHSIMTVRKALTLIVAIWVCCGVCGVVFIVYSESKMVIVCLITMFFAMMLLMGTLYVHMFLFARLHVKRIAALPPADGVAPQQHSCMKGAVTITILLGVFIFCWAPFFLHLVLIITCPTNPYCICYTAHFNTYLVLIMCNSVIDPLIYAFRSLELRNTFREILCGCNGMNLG
T3 sequence (P32245 whole entry): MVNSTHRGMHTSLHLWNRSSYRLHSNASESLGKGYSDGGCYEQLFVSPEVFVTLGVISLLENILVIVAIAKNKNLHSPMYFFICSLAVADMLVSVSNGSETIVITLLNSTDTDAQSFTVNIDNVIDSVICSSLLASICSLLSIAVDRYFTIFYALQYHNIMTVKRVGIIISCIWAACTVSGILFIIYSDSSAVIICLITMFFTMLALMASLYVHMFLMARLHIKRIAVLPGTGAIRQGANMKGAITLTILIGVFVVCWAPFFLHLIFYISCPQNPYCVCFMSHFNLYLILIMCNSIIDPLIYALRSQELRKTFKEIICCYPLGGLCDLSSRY
T4 sequence (P33032 whole entry): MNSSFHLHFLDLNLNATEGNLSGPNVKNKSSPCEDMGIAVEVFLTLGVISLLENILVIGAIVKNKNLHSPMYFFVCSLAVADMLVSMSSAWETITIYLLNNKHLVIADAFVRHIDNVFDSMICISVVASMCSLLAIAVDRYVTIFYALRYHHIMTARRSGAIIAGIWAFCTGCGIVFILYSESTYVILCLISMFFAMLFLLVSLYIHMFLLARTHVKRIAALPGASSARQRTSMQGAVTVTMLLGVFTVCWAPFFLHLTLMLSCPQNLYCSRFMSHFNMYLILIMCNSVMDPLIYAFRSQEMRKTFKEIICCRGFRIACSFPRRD
T1 sequence (Q01727 whole entry): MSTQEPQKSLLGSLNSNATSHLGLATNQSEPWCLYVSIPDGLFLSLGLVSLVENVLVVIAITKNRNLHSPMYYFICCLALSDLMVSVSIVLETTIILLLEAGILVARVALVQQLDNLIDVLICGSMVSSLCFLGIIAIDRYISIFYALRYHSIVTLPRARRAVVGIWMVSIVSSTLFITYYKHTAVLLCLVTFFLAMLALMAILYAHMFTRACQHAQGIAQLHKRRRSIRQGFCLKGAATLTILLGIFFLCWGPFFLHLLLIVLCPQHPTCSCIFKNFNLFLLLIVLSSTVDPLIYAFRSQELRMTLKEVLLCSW
T5 sequence (P32245 whole entry): as the sequence (P32245 whole entry) above
T6 sequence (P33032 whole entry): as the sequence (P33032 whole entry) above

`N=C(N)NCCCC1C(=O)N(CCc2c[nH]c3ccccc23)CCN1C(=O)C(Cc1ccc(Cl)cc1)NC(=O)C(COCc1ccccc1)NC(=O)CCCCCCN` (stereo not shown) [Example 17] gave an inhibition at 1 µM [1] of 96%, a Ki ([2]; read-out: Ki (nM) MC1-R) of 4 nM and an inhibition at 1 µM [3] of 97%. It also gave an inhibition at 1 µM [4] of 99%, an inhibition at 1 µM [5] of 94% and a Ki ([6]; read-out: Ki (nM) MC3-R) of 17 nM. For the same molecule, the Ki ([7]; read-out: Ki (nM) MC4-R) was 2 nM and the Ki ([8]; read-out: Ki (nM) MC5-R) was 32 nM.

`CCCCC(N)C(=O)NC(C)C(=O)NC(Cc1cnc[nH]1)C(=O)NC(Cc1ccccc1)C(=O)N1CC(OCc2ccccc2)CC1C(=O)NCCCN` (stereo not shown) [Example 134] (H-[Nle]AHF[Hyp](Bn)-{NH(CH2)3NH2}; configuration not given here) was tested, and the Ki [6, 12] was > 1000 nM, the Ki [7, 13] was > 1000 nM and the Ki [8, 14] was > 1000 nM.

With `N=C(N)NCCC[C@H]1C(=O)N2C(CC[C@@H]2COc2ccc3ccccc3c2)N1C(=O)[C@@H](Cc1ccccc1Cl)NC(=O)[C@@H]1C[C@@H](OCc2ccccc2)CN1` (stereo partly shown) [Example 100] the “Inhibition at 1 μM MC1-R” value [1] was 54%, the Ki ([2]; read-out: Ki (nM) MC1-R) was 244 nM and the “agonist/antagonist status as to MC1-R” value [9] was “agonist”. For the same molecule, the “agonist/antagonist status as to MC4-R” value [10] was “agonist”, the “Inhibition at 1 μM MC3-R” value [3] was 40% and the “Inhibition at 1 μM MC4-R” value [4] was 95%. For the same molecule, the “Inhibition at 1 μM MC5-R” value [5] was 93%, the Ki ([6]; read-out: Ki (nM) MC3-R) was 854 nM and the Ki ([7]; read-out: Ki (nM) MC4-R) was 42 nM. The Ki ([8]; read-out: Ki (nM) MC5-R) was 284 nM.

In the case of `N=C(N)NCCC[C@H]1C(=O)N2C(CC[C@@H]2COc2ccc3ccccc3c2)N1C(=O)[C@@H](Cc1ccc(Cl)cc1Cl)NC(=O)[C@@H]1Cc2ccccc2CN1` (stereo partly shown) [Example 112], the “Inhibition at 1 μM MC1-R” value [1] is reported as 75%, the Ki ([2]; read-out: Ki (nM) MC1-R) is reported as 111 nM and the “agonist/antagonist status as to MC1-R” value [9] is reported as “inactive”. The “agonist/antagonist status as to MC4-R” value [10] was “antagonist”, the “agonist/antagonist status as to MC5-R” value [11] was “antagonist” and the “Inhibition at 1 μM MC3-R” value [3] was 88%. The “Inhibition at 1 μM MC4-R” value [4] was 100%, the “Inhibition at 1 μM MC5-R” value [5] was 96% and the Ki ([6]; read-out: Ki (nM) MC3-R) was 42 nM. The Ki ([7]; read-out: Ki (nM) MC4-R) was 1 nM and the Ki ([8]; read-out: Ki (nM) MC5-R) was 26 nM.

With `NCCCC[C@H]1C(=O)N(CCc2ccc3ccccc3c2)CCN1C(=O)[C@@H](Cc1ccc(Cl)cc1Cl)NC(=O)[C@@H]1CC[C@H](c2ccccc2)N1` [Example 26] the Ki [2, 15] was > 1000 nM, the Ki [6, 12] was > 1000 nM and the Ki ([7]; read-out: Ki (nM) MC4-R) was 50 nM. For the same molecule, the Ki ([8]; read-out: Ki (nM) MC5-R) was 789 nM.

`[2H]N[C@@H](Cc1cnc[nH]1)C(=O)N[C@@H](Cc1ccccc1)C(=O)N1C2CC[C@H](COc3ccc4ccccc4c3)N2C(=O)[C@@H]1CCCCN` (stereo partly shown) [Example 180] was tested, and the Ki ([2]; read-out: Ki (nM) MC1-R) was 8 nM, the “agonist/antagonist status as to MC1-R” value [9] was “agonist” and the “agonist/antagonist status as to MC1-R” value ([9]; listed as Compound 2) was “potent MCR-1 agonist”. For the same molecule, the Ki [6, 12] was > 1000 nM, the Ki [7, 13] was > 1000 nM and the Ki [8, 14] was > 1000 nM.

With `NC(COCc1ccccc1)C(=O)NC(Cc1ccc(Cl)cc1Cl)C(=O)N1CCN(CCc2ccc3ccccc3c2)C(=O)C1CCCNC1=NCCN1` (stereo not shown) [Example 48] the inhibition at 1 µM [1] was 63%, the Ki [2, 15] was > 1000 nM and the inhibition at 1 µM [3] was 60%. The inhibition at 1 µM [4] was 99%, the inhibition at 1 µM [5] was 75% and the Ki [6, 12] was > 1000 nM. The Ki ([7]; read-out: Ki (nM) MC4-R) was 4 nM and the Ki ([8]; read-out: Ki (nM) MC5-R) was 104 nM.

In the case of `NCCCNC(=O)[C@@H]1C[C@@H](OCc2ccccc2)CN1C(=O)[C@@H](Cc1ccccc1)NC(=O)[C@H]1Cc2ccccc2CN1` [Example 148], the Ki [2, 15] is reported as > 1000 nM, the Ki [6, 12] is reported as > 1000 nM and the Ki [7, 13] is reported as > 1000 nM. The Ki [8, 14] was > 1000 nM.

With `N=C(N)NCCC[C@H]1C(=O)N2C(CC[C@@H]2COc2ccc3ccccc3c2)N1C(=O)[C@@H](Cc1ccc(Cl)cc1Cl)NC(=O)[C@@H]1CC[C@H](c2ccccc2)N1` (stereo partly shown) [Example 115] the Ki [2, 15] was > 1000 nM, the inhibition at 1 µM [3] was 43% and the inhibition at 1 µM [4] was 97%. The inhibition at 1 µM [5] was 86%, the Ki [6, 12] was > 1000 nM and the Ki ([7]; read-out: Ki (nM) MC4-R) was 12 nM. The Ki ([8]; read-out: Ki (nM) MC5-R) was 99 nM.

In the case of `NCCCNC(=O)[C@@H]1C[C@@H](OCc2ccccc2)CN1C(=O)[C@@H](Cc1ccc(Cl)cc1)NC(=O)[C@H]1Cc2ccccc2CN1` [Example 146], the Ki [2, 15] is reported as > 1000 nM, the Ki [6, 12] is reported as > 1000 nM and the Ki [7, 13] is reported as > 1000 nM. The Ki [8, 14] was > 1000 nM.

With `N=C(N)NCCCC1C(=O)N(CCc2c[nH]c3ccccc23)CCN1C(=O)C(Cc1ccc(Cl)cc1)NC(=O)C1Cc2ccccc2CN1` (stereo not shown) [Example 14] the inhibition at 1 µM [1] was 96%, the Ki ([2]; read-out: Ki (nM) MC1-R) was 3 nM and the inhibition at 1 µM [3] was 88%. For the same molecule, the inhibition at 1 µM [4] was 99%, the inhibition at 1 µM [5] was 89% and the Ki ([6]; read-out: Ki (nM) MC3-R) was 77 nM. It also gave a Ki ([7]; read-out: Ki (nM) MC4-R) of 2 nM and a Ki ([8]; read-out: Ki (nM) MC5-R) of 52 nM.

In the case of `CCCCCCC(=O)NC(COCc1ccccc1)C(=O)NC(Cc1ccc(Cl)cc1)C(=O)N1C(CCCCN)C(=O)N2C(COc3ccc4ccccc4c3)CCC21` (stereo not shown) [Example 81], the Ki ([6]; read-out: Ki (nM) MC3-R) is reported as 209 nM and the Ki ([8]; read-out: Ki (nM) MC5-R) is reported as 134 nM.

`NCCCNC(=O)C1CC(OCc2ccccc2)CN1C(=O)C(Cc1ccccc1)NC(=O)C1Cc2ccccc2CN1` (stereo not shown) [Example 147] was tested, and the Ki [2, 15] was > 1000 nM, the Ki [6, 12] was > 1000 nM and the Ki [7, 13] was > 1000 nM. The Ki [8, 14] was > 1000 nM.

In the case of `N=C(N)NCCCC1C(=O)N2C(COc3ccc4ccccc4c3)CCC2N1C(=O)C(Cc1ccccc1Cl)NC(=O)C(N)COCc1ccccc1` (stereo not shown) [Example 99], the Ki [6, 12] is reported as > 1000 nM.

With `NCCCCC1C(=O)N2C(COc3ccc4ccccc4c3)CCC2N1C(=O)C(Cc1ccc(Cl)cc1)NC(=O)C1Cc2ccccc2CN1` (stereo not shown) [Example 80] the Ki [6, 12] was > 1000 nM.

With `N=C(N)NCCCC1C(=O)N2C(COc3ccc4ccccc4c3)CCC2N1C(=O)C(Cc1ccccc1)NC(=O)C(N)Cc1cnc[nH]1` (stereo not shown) [Example 97] the Ki ([2]; read-out: Ki (nM) MC1-R) was 1 nM, the Ki [6, 12] was > 1000 nM and the Ki ([7]; read-out: Ki (nM) MC4-R) was 226 nM. For the same molecule, the Ki [8, 14] was > 1000 nM.

In the case of `NCCCNC(=O)C1CC(OCc2ccccc2)CN1C(=O)C(Cc1ccc(Cl)cc1)NC(=O)C1Cc2ccccc2CN1` (stereo not shown) [Example 145], the Ki [2, 15] is reported as > 1000 nM, the Ki [6, 12] is reported as > 1000 nM and the Ki [7, 13] is reported as > 1000 nM.
